Results on 5 compounds are retold here after BindingDB's records for doi:10.7270/Q29P301W (University of Pittsburgh, 2006).

The test concerns the target T1, Dual specificity protein phosphatase 6 (Rattus norvegicus, UniProt Q64346).
T1 sequence (Q64346 whole entry): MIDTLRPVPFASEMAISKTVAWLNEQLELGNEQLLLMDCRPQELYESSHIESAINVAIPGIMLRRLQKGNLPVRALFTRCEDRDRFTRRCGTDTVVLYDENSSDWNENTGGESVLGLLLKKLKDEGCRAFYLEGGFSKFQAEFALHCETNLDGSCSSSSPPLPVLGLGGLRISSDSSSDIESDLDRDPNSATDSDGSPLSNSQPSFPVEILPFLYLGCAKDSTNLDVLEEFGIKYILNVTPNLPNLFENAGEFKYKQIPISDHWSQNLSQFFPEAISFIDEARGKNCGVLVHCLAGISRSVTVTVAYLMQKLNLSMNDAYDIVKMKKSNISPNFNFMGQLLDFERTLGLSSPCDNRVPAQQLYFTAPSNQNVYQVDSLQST
The experiment in a line: Confirmatory specificity testing of DUSP6 inhibitors, biochemical, cell-free, concentration series (AID 452).

A value given as a limit tells only on which side of the number the result lay.

In general, IC50 refers to the midpoint of a concentration-inhibition curve. Turning to `Cc1ccc2c(c1C)NC(C(=O)O)C1CC=CC21` (stereo not given), the IC50 was over 50 µM.
For the compound `CCn1nc(-c2ccccc2)nc2c(=O)n(C)c(=O)nc1-2` [1-Ethyl-6-methyl-3-phenyl-1H-pyrimido[5,4-e][1,2,4]triazine-5,7-dione], the midpoint of inhibition, the IC50, lay at 0.159 µM.
In turn, `CC(C)Cn1c(N)c(C(=O)COC(=O)c2cc(-c3ccco3)nc3ccccc23)c(=O)n(C)c1=O` [2-(2-furanyl)-4-quinolinecarboxylic acid [2-[4-amino-1-methyl-3-(2-methylpropyl)-2,6-dioxo-5-pyrimidinyl]-2-oxoethyl] ester] registered an IC50 of over 50 µM.
For `CCCCC[C@H](O)C=C[C@H]1C=CC(=O)[C@@H]1C/C=C\CCCC(=O)O` [(Z)-7-[(1R,5S)-2-oxidanylidene-5-[(E,3S)-3-oxidanyloct-1-enyl]cyclopent-3-en-1-yl]hept-5-enoic acid], the IC50 was over 50 µM.
The value for `COc1ccc(Cn2c(C)nc3c(c2=O)c2nc4ccccc4nc2n3Cc2ccco2)cc1` [MLS000079944] was 41.2 µM.
